Assays:
[1] = tested on: Lactobacillus sp.; test: In vitro turbidity test (Muller-Hinton broth); format: cell-based; details: 100 μg/ml, 24 hours incubation
[2] = tested on: Escherichia coli BE; test: In vitro turbidity test (Muller-Hinton broth); format: cell-based; details: 100 μg/ml, 24 hours incubation
[3] = tested on: Corynebacterium diphteriae gravis; test: In vitro turbidity test (Muller-Hinton broth); format: cell-based; details: 100 μg/ml, 24 hours incubation
[4] = tested on: Diplococcus pneumoniae sp.; test: In vitro turbidity test (Muller-Hinton broth); format: cell-based; details: 100 μg/ml, 24 hours incubation
[5] = Antibiotic activity of electropherogram spot (germ not stated); format: cell-based
[6] = tested on: Proteus, indole negative and indole positive sp.; test: In vitro turbidity test (Muller-Hinton broth); format: cell-based; details: 100 μg/ml, 24 hours incubation
[7] = tested on: Providencia; test: In vitro turbidity test (Muller-Hinton broth); format: cell-based; details: 100 μg/ml, 24 hours incubation
[8] = tested on: Bordetella bronchiseptica; test: In vitro turbidity test (Muller-Hinton broth); format: cell-based; details: 100 μg/ml, 24 hours incubation
[9] = tested on: Escherichia coli C 165; test: Animal experiments with white mice (intraperitoneal infection); format: in vivo, white mice of strain CF1 infected with Escherichia coli; details: C165, sc, white mice CF1, subcutaneous, 1 administration 30 minutes after infection (1 × dose), 50% survive after 24 hours
Procedure: (§1) The white mice of strain CF1 were infected intraperitoneally with the species of bacteria indicated.
(§2) Determination of the ED50 after 24 hours
(§3) Therapy: 1 administration 30 minutes after infection.
(§4) The ED50 is the dose at which 50% of the infected animals still survive after 24 hours.

[10] = tested on: Enterobacter aerogenes sp.; test: In vitro turbidity test (Muller-Hinton broth); format: cell-based; details: 100 μg/ml, 24 hours incubation
[11] = tested on: Shigella sp.; test: In vitro turbidity test (Muller-Hinton broth); format: cell-based; details: 100 μg/ml, 24 hours incubation
[12] = tested on: Klebsiella; test: Animal experiments with white mice (intraperitoneal infection); format: in vivo, white mice of strain CF1 infected with Klebsiella; details: sc, white mice CF1, subcutaneous, 1 administration 30 minutes after infection (1 × dose), 50% survive after 24 hours
Procedure: as §1, §2, §3, §4

[13] = tested on: Klebsiella pneumoniae; test: In vitro turbidity test (Muller-Hinton broth); format: cell-based; details: 100 μg/ml, 24 hours incubation
[14] = tested on: Streptococcus pyogenes W.; test: In vitro turbidity test (Muller-Hinton broth); format: cell-based; details: 100 μg/ml, 24 hours incubation
[15] = tested on: Brucella sp.; format: cell-based; details: 100 μg/ml, 24 hours incubation
[16] = tested on: Haemophilis influenzae; test: In vitro turbidity test (Muller-Hinton broth); format: cell-based; details: 100 μg/ml, 24 hours incubation
[17] = tested on: Neisseria catarrhalis sp.; test: In vitro turbidity test (Muller-Hinton broth); format: cell-based; details: 100 μg/ml, 24 hours incubation
[18] = tested on: Serratia marcescens; test: In vitro turbidity test (Muller-Hinton broth); format: cell-based; details: 100 μg/ml, 24 hours incubation
[19] = tested on: Corynebacterium pyogenes M.; test: In vitro turbidity test (Muller-Hinton broth); format: cell-based; details: 100 μg/ml, 24 hours incubation
[20] = tested on: Staphylococcus aureus 133; test: Animal experiments with white mice (intraperitoneal infection); format: in vivo, white mice of strain CF1 infected with Staphylococcus aureus; details: Staphylococcus aureus, 133, sc; white mice CF1, subcutaneous, 1 administration 30 minutes after infection (1 × dose); 50% survive after 24 hours
Procedure: as §1, §2, §3, §4

[21] = tested on: Enterococcus sp.; test: In vitro turbidity test (Muller-Hinton broth); format: cell-based; details: 100 μg/ml, 24 hours incubation
[22] = tested on: Salmonella sp.; test: In vitro turbidity test (Muller-Hinton broth); format: cell-based; details: 100 μg/ml, 24 hours incubation
[23] = tested on: Staphylococcus aureus 133; test: In vitro turbidity test (Muller-Hinton broth); format: cell-based; details: 100 μg/ml, 24 hours incubation
[24] = tested on: Pasteurella pseudotuberculosis; format: cell-based; details: 100 μg/ml, 24 hours incubation
[25] = tested on: Escherichia coli; test: Antibiotic activity of electropherogram spot; format: cell-based
[26] = tested on: B. subtilis; test: Antibiotic activity of electropherogram spot; format: cell-based
[27] = tested on: Pseudomonas aeruginosa; test: Antibiotic activity of electropherogram spot; format: cell-based
[28] = tested on: bacteria from the genus Pseudomonades; details: known art; cited from earlier work

Structure (SMILES) | freedom from turbidity [1] | freedom from turbidity [2] | freedom from turbidity [3] | freedom from turbidity [4] | freedom from turbidity [6] | freedom from turbidity [7] | freedom from turbidity [8] | freedom from turbidity [10] | freedom from turbidity [11] | freedom from turbidity [13] | freedom from turbidity [14] | freedom from turbidity [15] | freedom from turbidity [16] | freedom from turbidity [17] | freedom from turbidity [18] | freedom from turbidity [19] | freedom from turbidity [21] | freedom from turbidity [22] | freedom from turbidity [23] | freedom from turbidity [24] | also measured
CC(=O)OCC1=C(C(=O)[O-])N2C(=O)C(NC(=O)[C@H](NC(=O)N3CCN(S(C)(=O)=O)C3=O)c3ccccc3)[C@H]2SC1.[Na+] (stereo partly drawn) [Example 6, Sodium 7-{D-α-[(2-oxo-3-mesyl-imidazolidin-1-yl)-carbonylamino]-phenylacetamido}-3-acetoxymethyl-ceph-3-em-4-carboxylate] | free from turbidity | free from turbidity | free from turbidity | free from turbidity | free from turbidity | free from turbidity | free from turbidity | free from turbidity | free from turbidity | free from turbidity | free from turbidity | free from turbidity | free from turbidity | free from turbidity | free from turbidity | free from turbidity | free from turbidity | free from turbidity | free from turbidity | free from turbidity | antibiotic activity of the electropherogram spot [5]: only shows one spot with antibiotic activity; ED50 [9]: 200 mg/kg; ED50 [12]: 150 mg/kg; ED50 [20]: 10 mg/kg
CC(=O)OCC1=C(C(=O)[O-])N2C(=O)C(NC(=O)[C@H](NC(=O)N3CCN(S(=O)(=O)c4ccccc4)C3=O)c3ccccc3)[C@H]2SC1.[Na+] (stereo partly drawn) [Example 7, Sodium 7-{D-α-[(2-oxo-3-phenylsulphonyl-imidazolidin-1-yl)-carbonylamino]-phenylacetamido}-3-acetoxymethyl-ceph-3-em-4-carboxylate] | free from turbidity | free from turbidity | free from turbidity | free from turbidity | free from turbidity | free from turbidity | free from turbidity | free from turbidity | free from turbidity | free from turbidity | free from turbidity | free from turbidity | free from turbidity | free from turbidity | free from turbidity | free from turbidity | free from turbidity | free from turbidity | free from turbidity | free from turbidity | 
CC(=O)OCC1=C(C(=O)[O-])N2C(=O)C(NC(=O)[C@H](NC(=O)N3CCN(C)C3=O)c3ccccc3)[C@H]2SC1.[Na+] (stereo partly drawn) [Example 3, sodium 7-{D-α-[(3-methyl-2-oxo-imidazolidin-1-yl)-carbonylamino]-phenylacetamido}-3-acetoxymethyl-ceph-3-em-4-carboxylate] | free from turbidity | free from turbidity | free from turbidity | free from turbidity | free from turbidity | free from turbidity | free from turbidity | free from turbidity | free from turbidity | free from turbidity | free from turbidity | free from turbidity | free from turbidity | free from turbidity | free from turbidity | free from turbidity | free from turbidity | free from turbidity | free from turbidity | free from turbidity | 
CC(=O)OCC1=C(C(=O)[O-])N2C(=O)C(NC(=O)[C@H](NC(=O)N3CCNC3=O)c3ccccc3)[C@H]2SC1.[Na+] (stereo partly drawn) [Example 1, sodium 7-{D-α-[(2-oxo-imidazolidin-1-yl)-carbonylamino]-phenylacetamido}-3-acetoxymethyl-ceph-3-em-4-carboxylate] |  |  |  |  |  |  |  |  |  |  |  |  |  |  |  |  |  |  |  |  | antibiotic activity of the electropherogram spot [25]: only one spot with antibiotic activity; antibiotic activity of the electropherogram spot [26]: only one spot with antibiotic activity; antibiotic activity of the electropherogram spot [27]: only one spot with antibiotic activity
CC1=C(C(=O)O)N2C(=O)C(NC(=O)[C@H](NC(=O)N3CCNC3=O)c3ccccc3)[C@H]2SC1 (stereo partly drawn) [Example 2, 7-{D-α-[(2-Oxo-imidazolidin-1-yl)-carbonylamino]-phenylacetamido}-3-methyl-ceph-3-em-4-carboxylic acid] |  |  |  |  |  |  |  |  |  |  |  |  |  |  |  |  |  |  |  |  | antibiotic activity of the electropherogram spot [5]: only one spot with antibiotic activity
CC(=O)OCC1=C(C(=O)O)N2C(=O)C(NC(=O)C(N)c3ccccc3)[C@H]2SC1 (stereo partly drawn) [cephaloglycine, 7-(α-amino-phenylacetamido)-3-acetoxymethyl-ceph-3-em-4-carboxylic acid] |  |  |  |  |  |  |  |  |  |  |  |  |  |  |  |  |  |  |  |  | activity against infections caused by Pseudomonades [28]: not active

From US4093722A, “Sulfonylimidazolidone substituted cephalosporins, antibacterial compositions containing them, and methods of combatting bacteria employing them” (Bayer Aktiengesellschaft, priority 1974, dated 1978)
